Measurements: ChEMBL document CHEMBL1201862, “PubChem BioAssay data set” (2004)
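Growth conditions: 96-well plates. Treatment: test compound, 48 hours, 5 concentrations. Analysis: linear interpolation between bracketing concentrations; unreached endpoints set to highest concentration. At the GI50, growth is halved.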 Activity calls are given as the source filed them. Rule as the data show it: active = GI50 up to about 1.1 µM and inactive = higher.

What was measured:
Assay in all cases: growth of human tumour cells (NCI), 48 h
[1] = system: HCT-116
[2] = system: NCI-H460
[3] = system: SF-268
[4] = system: OVCAR-8
[5] = system: SNB-19
[6] = system: SN12C
[7] = system: MDA-N
[8] = system: IGROV-1
[9] = system: KM12
[10] = system: UO-31
[11] = system: HT-29
[12] = system: 786-0
[13] = system: SF-295
[14] = system: A549
[15] = system: SF-539
[16] = system: T47D
[17] = system: SK-MEL-5
[18] = system: HL-60
[19] = system: DU-145
[20] = system: Hs-578T
[21] = system: RXF 393
[22] = system: MOLT-4
[23] = system: EKVX
[24] = system: U-251
[25] = system: MDA-MB-231
[26] = system: MDA-MB-435
[27] = system: K562
[28] = system: NCI-H23
[29] = system: NCI-H522
[30] = system: HOP-92
[31] = system: NCI-H226
[32] = system: OVCAR-3
[33] = system: OVCAR-5
[34] = system: HCT-15
[35] = system: HOP-62
[36] = system: MCF7
[37] = system: LOX IMVI
[38] = system: PC-3
[39] = system: SNB-75
[40] = system: ACHN
[41] = system: SR
[42] = system: Malme-3M
[43] = system: CAKI-1
[44] = system: SK-MEL-28
[45] = system: NCI/ADR-RES
[46] = system: A498
[47] = system: TK-10
[48] = system: M14
[49] = system: UACC-257
[50] = system: CCRF-CEM
[51] = system: SW-620

## C=C(C)[C@@H]1CC[C@]2(C(=O)OC)CC[C@]3(C)[C@H](CC[C@@H]4[C@@]5(C)CC[C@H](O)C(C)(C)[C@@H]5CC[C@]43C)[C@@H]12 [METHYL BETULINATE]
[1]
  GI50: 17.4 µM (inactive)
[2]
  GI50: 18.5 µM (inactive)
[3]
  GI50: 21.4 µM (inactive)
[4]
  GI50: 21.5 µM (inactive)
[5]
  GI50: 18.7 µM (inactive)
[6]
  GI50: 16.1 µM (inactive)
[7]
  GI50: 18.2 µM (inactive)
[8]
  GI50: 18.1 µM (inactive)
[9]
  GI50: 15.6 µM (inactive)
[10]
  GI50: 22.8 µM (inactive)
[11]
  GI50: 20.5 µM (inactive)
[12]
  GI50: 19.7 µM (inactive)
[13]
  GI50: 18.4 µM (inactive)
[14]
  GI50: 17.7 µM (inactive)
[15]
  GI50: 13.7 µM (inactive)
[16]
  GI50: 12 µM (inactive)
[17]
  GI50: 18.8 µM (inactive)
[18]
  GI50: 35.5 µM (inactive)
[19]
  GI50: 39.8 µM (inactive)
[20]
  GI50: 21.6 µM (inactive)
[21]
  GI50: 14.5 µM (inactive)
[22]
  GI50: 18.8 µM (inactive)
[23]
  GI50: 21.7 µM (inactive)
[24]
  GI50: 17.8 µM (inactive)
[25]
  GI50: 34 µM (inactive)
[26]
  GI50: 21 µM (inactive)
[27]
  GI50: 20.5 µM (inactive)
[28]
  GI50: 30.3 µM (inactive)
[29]
  GI50: 18.9 µM (inactive)
[30]
  GI50: 19.4 µM (inactive)
[31]
  GI50: 20 µM (inactive)
[32]
  GI50: 19.8 µM (inactive)
[33]
  GI50: 26.8 µM (inactive)
[34]
  GI50: 20.5 µM
[35]
  GI50: 18.8 µM (inactive)
[36]
  GI50: 19.4 µM (inactive)
[37]
  GI50: 18.4 µM (inactive)
[38]
  GI50: 16.7 µM (inactive)
[39]
  GI50: 21.6 µM (inactive)
[40]
  GI50: 16.9 µM (inactive)
[41]
  GI50: 32.3 µM (inactive)
[42]
  GI50: 22.5 µM (inactive)
[43]
  GI50: 20.8 µM (inactive)
[44]
  GI50: 22.3 µM (inactive)
[45]
  GI50: 19 µM (inactive)
[46]
  GI50: 18.9 µM (inactive)
[47]
  GI50: > 10 µM (inactive)
[48]
  GI50: 35.4 µM (inactive)
[49]
  GI50: 19.3 µM (inactive)
[50]
  GI50: 19.4 µM (inactive)
[51]
  GI50: 19.6 µM (inactive)
